Reference: patent US20130203861A1, “METHODS AND COMPOSITIONS FOR TREATING OVARIAN CANCER” (GOLDEN BIOTECHNOLOGY CORPORATION, priority 2009, published 2013)
Converted amounts (≈) assume the structure as drawn.

Tested on: ovarian cancer cell line ES-2
Test: MTT assay for anti-ovarian cancer (cell survival)
Format: cell-based
Conditions: Homo sapiens, ES-2 cells, 48 hours treatment, absorbance at 570 nm, read-out: IC50 (half inhibition concentration), inhibition of ovarian cancer cells
Experimental: Exemplary Compound 1 was added into the culture media of ovarian cancer cell line ES-2 (a human ovarian cancer cell line) to determine the survival rates. Survival of cells was analyzed using MTT assay. Other suitable human ovarian cancer cell lines may be used by a skilled person in the art.
MTT assay is commonly used to analyze cell proliferation, survival rate of viable cells and cytotoxicity. MTT (3[4,5-dimethylthiazol-2-yl]-2,5-diphenyltetrazolium bromide) is a yellow dye which can be converted to water-insoluble purple formazan on the reductive cleavage of its tetrazolium ring by the succinate tetrazolium reductase in mitochondria of cells. The amount of formazan produced is used to detect the number of viable cells and calculate the survival rates.
The ES-2 cells were cultivated in McCoy' 5 A medium supplemented with 10% fetal bovine serum, 10 U/ml of Penicillin and 100 μg/ml of Streptomycin at 37° C., 5% CO2 for 24 hours. Proliferated cells were washed once with PBS, treated with 1× trypsin-EDTA, and centrifuged at 1200 rpm for 5 min. The supernatant was removed and the cell pellet was resuspended in 10 ml of fresh medium by gently shaking. Cells were seeded onto 96-well plates. […] The absorbances were measured at 570 nm with an ELISA Reader to determine the survival rates.

COC1=C(OC)C(O)C(C/C=C(\C)CC/C=C(\C)CCC=C(C)C)C(C)C1=O (stereo not shown) [Compound 1, 4-hydroxy-2,3-dimethoxy-6-methyl-5-(3,7,11-trimethyldodeca-2,6,10-trienyl)cyclohex-2-enone]
IC50: 0.8 µg/mL (≈ 2.05 µM)
